Reference: patent US5824696A, “Medicaments” (SmithKline Beecham Corporation, priority 1993, dated 1998)
Residue numbers refer to the chain shown, from its start. Like-named read-outs stand apart in the source and are kept apart here. Values belong to the compound of their own block, whether it stands above or below them.

What was measured:
[1] = molecular target: T1, angiotensin receptors in human synovium (Homo sapiens, UniProt P30556); assay: Inhibition of [125I](Sar1, Ile8)AII binding to human synovium, quantitative receptor autoradiography; design: Binding of [125I](Sar1, Ile8) angiotensin II in the presence of antagonist: unit not given here; conditions: for nHill values / Ki: osteoarthritic synovium; for Ki: 0.25 nM [125I](Sar1, Ile8)AII; for Binding of [125I](Sar1, Ile8) angiotensin II in the presence of antagonist: 10 μM antagonist; for Binding of [125I](Sar1, Ile8) angiotensin II in the presence of DTT: osteoarthritis
T1 construct: Human knee synovium was collected at surgery from patients with osteoarthritis or rheumatoid arthritis; from tissue; host or cells: human knee synovium cryostat sections (osteoarthritis, rheumatoid arthritis, chondromalacia patellae)
T1 sequence (P30556 1-359): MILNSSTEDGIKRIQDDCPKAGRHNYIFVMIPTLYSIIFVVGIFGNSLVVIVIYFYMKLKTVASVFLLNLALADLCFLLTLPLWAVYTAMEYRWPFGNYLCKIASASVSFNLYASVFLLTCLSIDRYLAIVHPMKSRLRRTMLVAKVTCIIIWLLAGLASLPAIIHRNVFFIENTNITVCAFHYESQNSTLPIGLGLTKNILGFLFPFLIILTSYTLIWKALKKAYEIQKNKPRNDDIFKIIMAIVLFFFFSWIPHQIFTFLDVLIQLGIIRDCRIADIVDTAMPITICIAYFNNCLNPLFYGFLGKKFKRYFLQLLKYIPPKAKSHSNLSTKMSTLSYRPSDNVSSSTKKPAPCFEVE
Protocol: Human knee synovium was collected at surgery from patients with osteoarthritis or rheumatoid arthritis undergoing total knee replacement and patients with chondromalacia patellae undergoing carbon fibre resurfacing of articular cartilage. Tissue samples were immediately embedded in Tissue-Tek (Miles Inc., Elkhart, Ind., USA) and frozen to cork mounts in melting isopentane without prior fixation. Specimens were stored at -40° C. until use. […] thick sections were cut in a cryostat and thaw mounted onto Vectabond™ (Vector Laboratories, Peterborough, U.K.) treated slides, air dried and used immediately, or stored at -20° C. with silica gel for up to 5 days until use.
[…] Excess buffer was removed and sections were incubated for 90 minutes with ligand in buffer B (buffer A plus 1% bovine serum albumin). […] Except where stated, incubations were performed at 22° C.
Films were developed in Kodak D9 for 3 minutes at 15° C. […] Synovial structures were identified, where necessary, by comparison of films with tissue sections counterstained with haematoxylin and eosin. Tissue structures (blood vessels, lining cells and regions of subintimal stroma displaying specific binding) were each delineated interactively. Binding was quantified on the 20 blood vessels in each section with the most dense specific binding.
Specific binding was defined as total minus non-specific binding. Characterisation of specific binding was performed on samples of synovium from patients with osteoarthritis.
Kinetic and equilibrium constants were derived from specific binding values by iterative non-linear regression assuming single site models using GraphPAD Inplot4 (San Diego). […] Values for binding inhibition constants (Ki) and HIll coefficients (nHill) were derived by fitting to sigmoid curves.

[2] = system: angiotensin receptors in human synovium; assay: Guanine nucleotide sensitivity of [125I]AII binding to human synovium; conditions: 1 μM GTPγS
[3] = molecular target: T2, contractile response to angiotensin II in the isolated rabbit aorta (Oryctolagus cuniculus, UniProt P34976); assay: Antagonism of angiotensin II induced vasoconstriction in isolated rabbit aorta; conditions: rabbit thoracic aorta rings, 30-minute incubation, dose ratio method; read-out: Antagonist dissociation constant (KB)
T2 construct: Ring segments are cut from the rabbit thoracic aorta; from tissue; host or cells: rabbit thoracic aorta ring segments
T2 sequence (P34976 1-359): T1 sequence (P30556 1-359) with I2M, V49A, I254V, I270V, R272H, R311K, T349S, A353V
Protocol: Angiotensin II antagonist activity is assessed by in vitro methods In vitro antagonist activity is determined by the ability of the compounds to compete with ^125 I-angiotensin II for binding to vascular angiotensin II receptors and by their ability to antagonize the contractile response to angiotensin II in the isolated rabbit aorta.
The ability of the compounds to antagonize angiotensin II induced vasoconstriction is examined in the rabbit aorta. Ring segments are cut from the rabbit thoracic aorta and suspended in organ baths containing physiological salt solution. The ring segments are mounted over metal supports and attached to force displacement transducers which are connected to a recorder. Cumulative concentration response curves to angiotensin II are performed in the absence of antagonist or following a 30-minute incubation with antagonist. Antagonist dissociation constants (KB) are calculated by the dose ratio method using the mean effective concentrations. The KB for (E)-3-[2-n-butyl-1-{4-carboxynaphth-1-yl)methyl}-1H-imidazol-5-yl]-2-(2-thienyl)methyl-2-propenoic acid is about 0.15 nM.

- nHill values ([1]; blood vessels): 1.2
- Ki ([1]; blood vessels, read-out: Ki values): 49 nM
- Inhibition of binding of [125I](Sar1, Ile8)AII to microvessels, lining cells and stroma ([1]; inflamed human synovium): potently and completely inhibited
- nHill values ([1]; lining cells): 0.8
- Ki ([1]; lining cells, read-out: Ki values): 60.3 nM
- nHill values ([1]; stroma): 0.8
- Ki ([1]; stroma, read-out: Ki values): 81.3 nM
SMILES: CCCCc1ncc(/C=C(\Cc2cccs2)C(=O)O)n1Cc1ccc(C(=O)O)cc1 [(E)-3-[2-n-butyl-1-{4-carboxyphenyl)methyl}-1H-imidazol-5-yl]-2-(2-thienyl)methyl-2-propenoic acid]

- Inhibition of specific [125I](Sar1, Ile8)AII binding to each structure ([1]; 10 mM DTT): completely inhibited
- Binding of [125I](Sar1, Ile8) angiotensin II in the presence of DTT ([1]; blood vessels, 10 mM DTT, total 10.2, nonspecific 3.2): 3.2 (2.9 to 3.5) amol mm^-2
- Binding of [125I](Sar1, Ile8) angiotensin II in the presence of DTT ([1]; lining cells, 10 mM DTT, total 5.1, nonspecific 2.1): 2.0 (1.8 to 2.3) amol mm^-2
- Binding of [125I](Sar1, Ile8) angiotensin II in the presence of DTT ([1]; stroma, 10 mM DTT, total 2.6, nonspecific 1.7): 1.6 (1.5 to 1.7) amol mm^-2
SMILES: O[C@H](CS)[C@H](O)CS (racemic) [DTT, dithiothreitol]

The remaining lines, values behind:

SMILES: Cc1cc(Cn2cnc3c2C[C@@H](C(=O)O)N(C(=O)C(c2ccccc2)c2ccccc2)C3)ccc1N(C)C [PD123319]
- Inhibition of specific [125I](Sar1, Ile8)AII binding to each structure ([1]; 10 μM, synovium from patients with osteoarthritis and rheumatoid arthritis): not significantly inhibited
- Ki ([1]; Ki values, blood vessels): > 10000 nM
- Ki ([1]; Ki values, lining cells): > 10000 nM
- Ki ([1]; Ki values, stroma): > 10000 nM
- Binding of [125I](Sar1, Ile8) angiotensin II in the presence of antagonist ([1]; blood vessels, OA, total 7.9, nonspecific 2.4): 7.1
- Binding of [125I](Sar1, Ile8) angiotensin II in the presence of antagonist ([1]; blood vessels, RA, total 14, nonspecific 2.6): 12
- Binding of [125I](Sar1, Ile8) angiotensin II in the presence of antagonist ([1]; lining cells, OA, total 3.6, nonspecific 1.6): 3.8
- Binding of [125I](Sar1, Ile8) angiotensin II in the presence of antagonist ([1]; lining cells, RA, total 5.7, nonspecific 1.7): 5.5
- Binding of [125I](Sar1, Ile8) angiotensin II in the presence of antagonist ([1]; stroma, OA, total 2.4, nonspecific 1.5): 2.2
- Binding of [125I](Sar1, Ile8) angiotensin II in the presence of antagonist ([1]; stroma, RA, total 3.0, nonspecific 1.6): 2.9

SMILES: Nc1nc2c(ncn2[C@@H]2O[C@H](COP(=O)(O)OP(=O)(O)OP(O)(O)=S)[C@@H](O)[C@H]2O)c(=O)[nH]1 [GTPγS, guanosine 5'-O-(3-thiotriphosphate)]
- Inhibition of binding of agonist [125I]AII to each structure [2]: levels not significantly different from nonspecific binding
- Inhibition of [125I](Sar1, Ile8)AII binding ([1]; 1 μM GTPγS): did not inhibit

SMILES: CCCCc1ncc(/C=C(\Cc2cccs2)C(=O)O)n1Cc1ccc(C(=O)O)c2ccccc12 [(E)-3-[2-n-butyl-1-{4-carboxynaphth-1-yl)methyl}-1H-imidazol-5-yl]-2-(2-thienyl)methyl-2-propenoic acid]
- Kb [3]: ~0.15 nM
